Test systems include KM12; OVCAR-8; DMS-114; MOLT-4; A549; SF-539; HL-60; CCRF-CEM; NCI-H226; HOP-18; EKVX; NCI-H23; DMS-273; SK-MEL-2; HCT-15; KM-20L2; SK-OV-3; BT-549; MDA-N; T47D.
Common to all, as to experiment: NCI anticancer screen, dose series, 48 h

Molecules are shown by their SMILES.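 Cultured in 96-well plates, cells were exposed to test compound for 48 hours across five concentrations. Abbreviation: GI50, concentration required for 50% inhibition of growth.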 Calls of active or inactive are those of the source. Rule as the data show it: active = GI50 up to about 1.1 µM and inactive = higher.

Regarding `CC1=NN(C(=O)Cc2ccccc2)C(=O)/C1=C\c1ccco1`, the GI50 with KM12, in the test on OVCAR-8, in the test on DMS-114, in the test on MOLT-4, with A549 and in the test with SF-539 was > 100 µM (inactive) each time. The GI50 in the test on HL-60, with CCRF-CEM, in the test on NCI-H226, in the test on HOP-18, in the test with EKVX and with NCI-H23 was > 100 µM (inactive) each time. Further, the GI50 in the test on DMS-273 is > 100 µM (inactive); with SK-MEL-2, > 100 µM (inactive); in the test with HCT-15, more than 100 µM.

For `OCC12C=CC(C1)c1ccccc12` (centres undefined), the GI50 with OVCAR-8, in the test with DMS-114, with MOLT-4, in the test with KM-20L2, with A549 and in the test on HL-60 was > 100 µM (inactive) throughout. Further, the GI50 with CCRF-CEM, in the test with NCI-H226, with SK-OV-3, in the test on HOP-18, in the test with NCI-H23 and in the test on DMS-273 was > 100 µM (inactive) throughout. For the same compound, the GI50 in the test on HCT-15 is more than 100 µM.

Consider `CO[C@@]12[C@H](COC(N)=O)C3=C(C(=O)C(C)=C(N)C3=O)N1C[C@@H]1N[C@@H]12` [MITOMYCIN], for which the GI50 in the test on KM12 is 2.22 µM (inactive); in the test on BT-549 it was 1.75 µM (inactive); with OVCAR-8, 1.11 µM (active); in the test with MOLT-4 it was 0.23 µM (active); in the test on KM-20L2, 1.3 µM (inactive); in the test on HL-60 it was 0.204 µM (active). Also, the GI50 was 0.229 µM (active) in the test on CCRF-CEM; 0.714 µM (active) in the test on NCI-H226; 1.02 µM (active) with SK-OV-3; 1.1 µM (active) in the test with HOP-18; 4.62 µM (inactive) in the test with EKVX; 0.104 µM (active) with DMS-273. Also, the GI50 was 1.65 µM (inactive) with SK-MEL-2 and 1.29 µM in the test on HCT-15.

Regarding `Cc1ccc(S(=O)(=O)C2=c3ncccc3=C3C(=O)c4ccccc4C(=O)C32)cc1` (centres undefined), the GI50 in the test on KM12 was > 9.95 µM (inactive); in the test with BT-549, 39.8 µM (inactive); with OVCAR-8, 39.4 µM (inactive); in the test with MDA-N, > 100 µM (inactive); in the test on DMS-114 it was 65 µM (inactive); with MOLT-4 it was > 100 µM (inactive). The GI50 with A549 is > 100 µM (inactive); in the test on SF-539, 2.75 µM (inactive); with HL-60, 99.5 µM (inactive); with CCRF-CEM, > 95.1 µM (inactive); in the test on NCI-H226 it was > 29.9 µM (inactive); in the test with SK-OV-3, 38.2 µM (inactive). Moreover, the GI50 was > 100 µM (inactive) in the test with HOP-18; 69 µM (inactive) in the test with EKVX; 64 µM (inactive) in the test on NCI-H23; 26.5 µM (inactive) with DMS-273; 68.4 µM (inactive) with T47D; 3.13 µM (inactive) in the test on SK-MEL-2. Moreover, the GI50 in the test with HCT-15 is more than 10 µM.

With `O=C(O)CSc1ccc2nc3ccccc3c(O)c2c1`, the GI50 with OVCAR-8, in the test with DMS-114, in the test with MOLT-4, in the test with KM-20L2, with A549 and in the test on HL-60 was > 100 µM (inactive) throughout. The GI50 in the test with CCRF-CEM, in the test on NCI-H226, in the test on SK-OV-3, in the test on HOP-18, with NCI-H23 and with DMS-273 was > 100 µM (inactive) in each case. The GI50 with HCT-15 is more than 100 µM.

For the origin of these results see ChEMBL document CHEMBL1201862, “PubChem BioAssay data set” (2004).
